{
  "source": "patent US12030879B2",
  "about": "“Sulfonyl acetamides as NLRP3 inhibitors” (Inflazome Limited, priority 2018, dated 2024)",
  "data": [
    {"molecular_target": "T1, NLRP3 (Homo sapiens, UniProt Q96P20)", "T1 construct": "Seed THP-1 cells (25,000 cells/well) containing 1.0 μg/ml LPS in 40 μl of RPMI medium; host or cells: THP-1 cells", "T1 sequence (Q96P20 whole entry)": "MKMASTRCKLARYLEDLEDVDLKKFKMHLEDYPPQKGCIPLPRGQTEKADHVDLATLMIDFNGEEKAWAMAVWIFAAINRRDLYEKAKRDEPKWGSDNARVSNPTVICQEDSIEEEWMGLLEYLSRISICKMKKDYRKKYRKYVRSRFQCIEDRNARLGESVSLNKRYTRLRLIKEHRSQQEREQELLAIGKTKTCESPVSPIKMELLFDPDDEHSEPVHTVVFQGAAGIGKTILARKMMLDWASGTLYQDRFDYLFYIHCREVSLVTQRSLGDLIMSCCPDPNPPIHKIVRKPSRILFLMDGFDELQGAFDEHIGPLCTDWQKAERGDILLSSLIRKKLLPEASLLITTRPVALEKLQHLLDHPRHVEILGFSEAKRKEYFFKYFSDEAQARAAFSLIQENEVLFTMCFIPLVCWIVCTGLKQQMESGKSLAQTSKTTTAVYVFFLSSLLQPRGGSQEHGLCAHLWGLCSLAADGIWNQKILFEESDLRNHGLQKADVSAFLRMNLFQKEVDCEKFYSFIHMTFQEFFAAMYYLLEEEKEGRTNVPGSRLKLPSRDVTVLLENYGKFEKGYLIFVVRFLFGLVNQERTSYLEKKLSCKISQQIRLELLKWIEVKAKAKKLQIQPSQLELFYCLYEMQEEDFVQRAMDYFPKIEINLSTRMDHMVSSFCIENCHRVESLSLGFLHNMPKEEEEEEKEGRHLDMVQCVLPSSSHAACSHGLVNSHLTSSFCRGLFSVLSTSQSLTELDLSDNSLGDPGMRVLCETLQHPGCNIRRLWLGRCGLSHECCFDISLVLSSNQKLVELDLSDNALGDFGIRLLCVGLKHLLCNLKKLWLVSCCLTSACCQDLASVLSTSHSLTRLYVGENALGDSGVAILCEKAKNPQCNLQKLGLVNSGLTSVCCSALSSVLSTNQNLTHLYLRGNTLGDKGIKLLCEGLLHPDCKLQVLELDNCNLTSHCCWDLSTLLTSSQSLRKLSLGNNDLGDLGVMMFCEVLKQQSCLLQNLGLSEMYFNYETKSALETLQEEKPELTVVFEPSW", "assay": "THP-1 cells pyroptosis assay", "assay_type": "cell-based", "details": "LPS 1 μg/ml, compound 3 hrs, nigericin 5 μM 1 hr, resazurin readout", "outline": "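LPS-primed (1 μg/ml) THP-1 cells in serum-free RPMI were treated 3 h with compound (8-point half-log, top 10 μM; 0.1% DMSO), then with 5 μM nigericin for 1 h at 37°C. Viability was read by 100 μM resazurin (ex 560/em 590 nm) after 1–2 h. IC50 came from 4-parameter nonlinear regression.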", "units": {"IC50": "nM"}, "values": [
      {"smiles": "COc1cc(-c2cc(F)cc(C(C)C)c2CC(=O)NS(=O)(=O)c2ccc3c(c2)CCCO3)ccn1", "note": "[Example 118]", "IC50": "≤ 1000"},
      {"smiles": "COc1cccc(S(=O)(=O)NC(=O)Cc2c(-c3ccnc(OC)c3)cc(F)cc2C(C)C)c1", "note": "[Example 119]", "IC50": "≤ 1000"},
      {"smiles": "COc1cc(-c2cc(F)cc(C(C)C)c2CC(=O)NS(=O)(=O)c2ccc(C)cc2F)ccn1", "note": "[Example 120]", "IC50": "≤ 1000"},
      {"smiles": "COc1cc(-c2cc(F)cc(C(C)C)c2CC(=O)NS(=O)(=O)c2cc(C)c(C)s2)ccn1", "note": "[Example 121]", "IC50": "≤ 500"},
      {"smiles": "COc1cc(-c2cc(F)cc(C(C)C)c2CC(=O)NS(=O)(=O)c2ccc(C)c(C)c2)ccn1", "note": "[Example 122]", "IC50": "≤ 500"},
      {"smiles": "COc1cc(-c2cc(F)cc(C(C)C)c2CC(=O)NS(=O)(=O)c2ccc3c(c2)CCC3)ccn1", "note": "[Example 123]", "IC50": "≤ 500"},
      {"smiles": "COc1cc(-c2cc(F)cc(C(C)C)c2CC(=O)NS(=O)(=O)c2ccc3c(c2)COC3)ccn1", "note": "[Example 124]", "IC50": "≤ 500"},
      {"smiles": "COc1cc(-c2cc(F)cc(C(C)C)c2CC(=O)NS(=O)(=O)c2ccc(C)c(F)c2)ccn1", "note": "[Example 125]", "IC50": "≤ 500"},
      {"smiles": "COc1cc(-c2cc(F)cc(C(C)C)c2CC(=O)NS(=O)(=O)c2ccc3ccccc3c2)ccn1", "note": "[Example 126]", "IC50": "≤ 500"},
      {"smiles": "COc1cc(-c2cc(F)cc(C(C)C)c2CC(=O)NS(=O)(=O)c2ccc(-c3cnco3)s2)ccn1", "note": "[Example 127]", "IC50": "≤ 5000"},
      {"smiles": "COc1cc(-c2cc(F)cc(C(C)C)c2CC(=O)NS(=O)(=O)c2cc(Br)ccc2C)ccn1", "note": "[Example 128]", "IC50": "≤ 1000"},
      {"smiles": "COc1cc(-c2cc(F)cc(C(C)C)c2CC(=O)NS(=O)(=O)c2ccc(Br)cc2C)ccn1", "note": "[Example 129]", "IC50": "≤ 1000"},
      {"smiles": "COc1cc(-c2cc(F)cc(C(C)C)c2CC(=O)NS(=O)(=O)c2ccc(CCNC(C)=O)cc2)ccn1", "note": "[Example 130]", "IC50": "≤ 5000"},
      {"smiles": "COc1cc(-c2cc(F)cc(C(C)C)c2CC(=O)NS(=O)(=O)c2nn(C)/c(=N\\C(C)=O)s2)ccn1", "note": "[Example 131]", "IC50": "≤ 5000"},
      {"smiles": "COc1cc(-c2cc(F)cc(C(C)C)c2CC(=O)NS(=O)(=O)c2ccc(/C(C)=N\\O)cc2)ccn1", "note": "[Example 132]", "IC50": "≤ 5000"},
      {"smiles": "COc1cc(-c2cc(F)cc(C(C)C)c2CC(=O)NS(=O)(=O)c2cccc(CNC(C)=O)c2)ccn1", "note": "[Example 133]", "IC50": "≤ 5000"},
      {"smiles": "COc1cc(-c2cc(F)cc(C(C)C)c2CC(=O)NS(=O)(=O)c2ccc(C(C)(C)F)cc2C)ccn1", "note": "[Example 134]", "IC50": "≤ 500"},
      {"smiles": "COc1cc(-c2cc(F)cc(C(C)C)c2CC(=O)NS(=O)(=O)c2ccc(Cl)c(F)c2)ccn1", "note": "[Example 135]", "IC50": "≤ 5000"},
      {"smiles": "COc1cc(-c2cc(F)cc(C(C)C)c2CC(=O)NS(=O)(=O)c2ccc(Cl)cc2C)ccn1", "note": "[Example 136]", "IC50": "≤ 1000"},
      {"smiles": "COc1cc(-c2cc(F)cc(C(C)C)c2CC(=O)NS(=O)(=O)c2ccc(C(C)(C)O)cn2)ccn1", "note": "[Example 137]", "IC50": "≤ 10000"},
      {"smiles": "COc1cc(-c2cc(F)cc(C(C)C)c2CC(=O)NS(=O)(=O)c2nnc(NC(C)=O)s2)ccn1", "note": "[Example 138]", "IC50": "≤ 10000"},
      {"smiles": "COc1cc(-c2cc(F)cc(C(C)C)c2CC(=O)NS(=O)(=O)c2cc(F)c(Br)cc2C)ccn1", "note": "[Example 139]", "IC50": "≤ 500"},
      {"smiles": "COc1cc(-c2cc(F)cc(C(C)C)c2CC(=O)NS(=O)(=O)c2ccc(Br)cc2C(F)(F)F)ccn1", "note": "[Example 140]", "IC50": "≤ 5000"},
      {"smiles": "COc1cc(-c2cc(F)cc(C(C)C)c2CC(=O)NS(=O)(=O)c2ccc(Cl)c(C(F)(F)F)c2)ccn1", "note": "[Example 141]", "IC50": "≤ 1000"},
      {"smiles": "CC(C)c1cc(F)cc(-c2cccnc2)c1CC(=O)NS(=O)(=O)c1cnc(C(C)(C)O)s1", "note": "[Example 142]", "IC50": "≤ 1000"},
      {"smiles": "CC(C)c1cc(F)cc(-c2cccnc2)c1CC(=O)NS(=O)(=O)c1ncc(C(C)(C)O)s1", "note": "[Example 143]", "IC50": "≤ 1000"},
      {"smiles": "COc1cc(-c2cc(F)cc(C(C)C)c2CC(=O)NS(=O)(=O)c2cc(C(C)(C)OC)cs2)ccn1", "note": "[Example 144]", "IC50": "≤ 500"},
      {"smiles": "COc1ccc(-c2cc(F)cc(C(C)C)c2CC(=O)NS(=O)(=O)c2cc(C(C)(C)O)cs2)cn1", "note": "[Example 145]", "IC50": "≤ 500"},
      {"smiles": "COc1cc(-c2cc(F)cc(C(C)C)c2CC(=O)NS(=O)(=O)c2c(C)cc(N(C)C)cc2C)ccn1", "note": "[Example 146]", "IC50": "≤ 10000"},
      {"smiles": "COc1cc(-c2c(CC(=O)NS(=O)(=O)c3cc(C(C)(C)O)cs3)c(C(C)C)nn2C)ccn1", "note": "[Example 147]", "IC50": "≤ 5000"},
      {"smiles": "COc1cncc(-c2cc(F)cc(C(C)C)c2CC(=O)NS(=O)(=O)c2cc(C(C)(C)O)cs2)c1", "note": "[Example 148]", "IC50": "≤ 5000"},
      {"smiles": "COc1cc(-c2cc(F)cc(C(C)C)c2CC(=O)NS(=O)(=O)c2cc(C(C)(C)O)c(F)cc2F)ccn1", "note": "[Example 149]", "IC50": "≤ 500"},
      {"smiles": "C=C(C)c1csc(S(=O)(=O)NC(=O)Cc2c(-c3ccnc(OC)c3)cc(F)cc2C(C)C)c1", "note": "[Example 150]", "IC50": "≤ 500"},
      {"smiles": "COc1cc(-c2cc(F)cc(C(C)C)c2CC(=O)NS(=O)(=O)c2ccc(C3CC3)cc2C)ccn1", "note": "[Example 151]", "IC50": "≤ 500"},
      {"smiles": "COc1cc(-c2cc(F)cc(C(C)C)c2CC(=O)NS(=O)(=O)c2c(C)nn(C(C)C)c2C)ccn1", "note": "[Example 152]", "IC50": "≤ 5000"},
      {"smiles": "COc1cc(-c2cc(F)cc(C(C)C)c2CC(=O)NS(=O)(=O)c2cc(N(C)C)ccc2C)ccn1", "note": "[Example 153]", "IC50": "≤ 5000"},
      {"smiles": "C=C(C)c1csc(S(=O)(=O)NC(=O)Cc2c(C(C)C)nn(C)c2-c2ccnc(OC)c2)c1", "note": "[Example 154]", "IC50": "≤ 500"},
      {"smiles": "CNc1cc(C)c(S(=O)(=O)NC(=O)Cc2c(-c3ccnc(OC)c3)cc(F)cc2C(C)C)cc1C", "note": "[Example 155]", "IC50": "≤ 5000"},
      {"smiles": "COc1cc(-c2cc(F)cc(C(C)C)c2CC(=O)NS(=O)(=O)c2cc(C(C)C)c(F)cc2F)ccn1", "note": "[Example 156]", "IC50": "≤ 500"},
      {"smiles": "COc1cc(-c2cc(F)cc(C(C)C)c2CC(=O)NS(=O)(=O)c2ccc(C(C)C)cc2C)ccn1", "note": "[Example 157]", "IC50": "≤ 500"},
      {"smiles": "CC(C)c1cc(F)cc(-c2ccnc(O)c2)c1CC(=O)NS(=O)(=O)c1cc(C(C)(C)O)cs1", "note": "[Example 158]", "IC50": "≤ 5000"},
      {"smiles": "COc1cc(-c2cc(F)cc(C(C)C)c2CC(=O)NS(=O)(=O)c2cc(C(C)(C)O)c(C)s2)ccn1", "note": "[Example 159]", "IC50": "≤ 500"},
      {"smiles": "COc1cc(-c2cc(F)cc(C(C)C)c2CC(=O)NS(=O)(=O)c2cc(C(C)(C)O)nn2C)ccn1", "note": "[Example 160]", "IC50": "≤ 5000"},
      {"smiles": "COc1cc(-c2cc(F)cc(C(C)C)c2CC(=O)NS(=O)(=O)c2c(Cl)cc(N(C)C)cc2Cl)ccn1", "note": "[Example 161]", "IC50": "≤ 5000"},
      {"smiles": "COc1cc(-c2cc(F)cc(C(C)C)c2CC(=O)NS(=O)(=O)c2cnc(N(C)C)cc2C)ccn1", "note": "[Example 162]", "IC50": "≤ 5000"},
      {"smiles": "C=C(C)c1csc(S(=O)(=O)NC(=O)Cc2c(-c3ccnc(OC)c3)nn(C)c2C(C)C)c1", "note": "[Example 163]", "IC50": "≤ 10000"},
      {"smiles": "C=C(C)c1ccc(S(=O)(=O)NC(=O)Cc2c(-c3ccnc(OC)c3)cc(F)cc2C(C)C)c(C)c1", "note": "[Example 164]", "IC50": "≤ 500"},
      {"smiles": "C=C(C)c1cc(S(=O)(=O)NC(=O)Cc2c(-c3ccnc(OC)c3)cc(F)cc2C(C)C)c(F)cc1F", "note": "[Example 165]", "IC50": "≤ 500"},
      {"smiles": "COc1cc(-c2cc(F)cc(C(C)C)c2CC(=O)NS(=O)(=O)c2cc(Br)c(F)cc2F)ccn1", "note": "[Example 166]", "IC50": "≤ 500"},
      {"smiles": "COc1cc(-c2cc(F)cc(C(C)C)c2CC(=O)NS(=O)(=O)c2cc(C(C)(C)O)ccc2C)ccn1", "note": "[Example 167]", "IC50": "≤ 5000"},
      {"smiles": "COc1cc(-c2cc(F)cc(C(C)C)c2CC(=O)NS(=O)(=O)c2c(C)nn(CC(F)(F)F)c2C)ccn1", "note": "[Example 168]", "IC50": "≤ 5000"},
      {"smiles": "COc1cc(-c2cc(F)cc(C(C)C)c2CC(=O)NS(=O)(=O)c2cn(CC(F)F)nc2C)ccn1", "note": "[Example 169]", "IC50": "≤ 5000"}
    ]}
  ]
}
